Source: patent US5384406A, “Water-soluble biologically active ammonium salts” (ISP Investments Inc., priority 1993, dated 1995)
Read-outs that look alike come from different tables or passages of the source.

Tests used:
[1] = aqueous solution after filtration, not adjusted
Procedure: (§1) In a 250 ml round bottom flask 15.5 g (0.482 millimole) of a commercial herbicide, imazaquin* (97.4% pure, having an average molecular weight of 311.4) was suspended in 100 g water. To the suspension, 6.1 g (0.469 millimole) of 98.5% pure AEP was added. […] 2-[4,5-dihydro-4-methyl-4-(methylethyl)-5-oxo-1H-imidazol-2-yl]-3-quinoline e carboxylic acid.

solubility in water = experiment: solubility in water
Procedure: Example 1 was repeated, except that 2 g of heavy water replaced 150 g of methanol solvent, 0.3 g of Dicamba replaced 30 g Dicamba and 0.16 g of AEP replaced 15.8 g of AEP.
as §1
To a solution containing 13 g (0.1 mole) AEP (98.5% pure) dissolved in 30 g water in a 100 ml round bottom flask was added at 25° C. and with constant agitation, 16.9 g (0.1 mole) of water insoluble solid phosphonomethyl glycine.
To one liter of water was added 15.42 g of 2,4 D+7.11 g of mecoprop +1.83 g of 90% pure dicamba. After which 13.83 g AEP was added to the mixture. […] To the above solution was added 9 g of polyalkylene oxide modified by polydimethyl siloxane (Silvelt 7607 wetting agent) from Union Carbide. The mixture was stirred and the total weight was adjusted to 3000 g by adding water.

[2] = Procedure: A solution containing 25 g of the AEP salt of commercial imazaquin in water was prepared from a suspension of 25 g of imazaquin in 50 g water to which was added a stoichiometric amount of AEP (10.2 g) and an additional 15 g of water. The solution was stirred for 30 minutes after which it was filtered and the pH of the filtrate was adjusted to 7.2.
[3] = tested on: broad leaf plants and perennial weeds; experiment: evaluation as aquatic herbicide and broad spectrum growth inhibitor, compared with the isopropyl amine salt of phosphonomethyl glycine; type: in vivo
Procedure: A suspension of 169 g of phosphonomethyl glycine in 301 g water was prepared and 130 g 98.5% pure AEP was added slowly with stirring until all of the phosphonomethyl glycine dissolved as the AEP salt. The resulting solution, (containing 28% of the active ingredient expressed as the free acid or 49.5% of the active ingredient expressed as the AEP salt) was evaluated as an aquatic herbicide and as a broad spectrum growth inhibitor for broad leaf plants and perennial weeds and compared with the isopropyl amine salt of phosphonomethyl glycine.

CC(C)C1(C)N=C(c2nc3ccccc3cc2C(=O)O)NC1=O.NCCN1CCCC1=O (stereo not shown) [Example 3, N-pyrrolidonyl ethyl ammonium salt of imazaquin]
pH of the filtrate [1]: 7.2 | dissolution of freeze-dried solid in water (solubility in water; 0.1 g in 50 g of water): dissolved completely | storage stability of solution ([2]; ambient conditions, stored for 6 months): stable under ambient conditions without any precipitation | precipitation after cooling and reheating ([2]; cooling to 0° C., then to room temperature): no precipitation was observed

COc1c(Cl)ccc(Cl)c1C(=O)O [reference compound]
solubility in water (in words) (solubility in water): very poor solubility | solubility (solubility in water; water): < 1000 µg/mL

NCCN1CCCC1=O.O=C(O)CNCP(=O)(O)O [Example 5, N-pyrrolidonyl ethyl ammonium salt of phosphonomethyl glycerine]
kill [3]: significantly higher and more permanent kill | soluble in water (solubility in water; isolated AEP salt): more than 50%

COc1c(Cl)ccc(Cl)c1C(=O)O.NCCN1CCCC1=O [Example 1, N-pyrrolidonyl ethyl ammonium salt of 3,6-dichloro-l-methoxy benzoic acid]
solubility in water (in words) (solubility in water; water): easily dissolved in 60% water | solubility in water (in words) (solubility in water; water, listed as Example 2): easily solubilized in water
